We go through three molecules from paper PMC4997316, “A ruthenium polypyridyl intercalator stalls DNA replication forks, radiosensitizes human cancer cells and is enhanced by Chk1 inhibition” (Scientific Reports, 2016).

Assay [1] relates to HeLa cells. Description: quantification of apoptotic morphology (pyknosis/karyorrhexis). Type of assay: cell-based, human. The conditions noted are these: single-agent treatment, 48 h (1 40 μM; CHIR-124 500 nM). The procedure: With this in mind, and considering the strong Chk1 activation in response to 1, HeLa cervical cancer cells, which are […][44], were exposed to a combination of 1 plus the Chk1 inhibitor CHIR-124[45] and the impact of co-treatment upon cell viability determined. A non-cytotoxic dose of 500 nM CHIR-124 was used and results were compared to single-agent treatment. […] Minimal enhancement of the anti-proliferative effect of 2 by CHIR-124 was observed (Fig. S15b), in agreement with 2 operating via a Chk1-independent mechanism.
Figure 5 Concurrent treatment of [Ru(dppz)2(PIP)]^2+ plus the Chk1 inhibitor CHIR-124 potentiates synergistic apoptosis in cancer cells. (a) Viability of HeLa (cervical cancer) or hSAEC1-KT (normal epithelial) cells after incubation with 1 in the absence or presence of Chk1 inhibitor CHIR-124 (500 nM) for 48 h constant exposure. (b) Morphological evidence for apoptosis (pyknosis/karyorrhexis, arrows) in HeLa cells treated with 40 μM 1 plus CHIR-124 for 48 h. Scale bars = 20 μm. (c) Quantification of apoptotic cells for experimental conditions as shown in (b). Equivalent results for 2 (40 μM, 48 h) included. Data mean of two independent experiments +/− SD. […] (f) Quantification of γH2AX foci from cells treated as in (e). […] Minimum of 150 cells counted per experiment. […]

Assay [2] has as its system HeLa cervical cancer cells. Description: MTT proliferation assay, HeLa. Type of assay: cell-based, human. The conditions noted are these: 24 h proliferation assay. How it is done:
(§1) (LC3 = Microtubule-associated protein light chain 3) (Fig. 2b, bottom).
(§2) Cells were seeded in 96 well plates at 20,000 cells/well, allowed to proliferate for 24 h before treatment as described in the main text. 0.5 mg ml^−1 MTT (thiazolyl blue tetrazolium bromide) dissolved in serum-free media was added for 60 minutes and the formazan product eluted using acidified isopropanol. The absorbance at 540 nm was quantified by plate reader (reference wavelength 650 nm). The metabolic activity of the cell population was determined as a percentage of a negative (solvent) control.
(Tetrazolium dyes change colour on reduction, which living cells bring about.)

Assay [3] relates to primary human foreskin fibroblasts (HFF). The experiment in a line: MTT proliferation assay, HFF. Type of assay: cell-based. The conditions noted are these: 24 h proliferation assay. How it is done: as §1, §2
The subject of the next assay is MCF7 breast cancer cells. The experiment in a line: MTT proliferation assay, MCF7. It counts as cell-based, human. Particulars: 24 h proliferation assay. How it is done: as §1, §2
For assay [4], the system named is HeLa cells. The experiment in a line: cell-cycle analysis by PI flow cytometry. Type of assay: cell-based, human. Particulars: cisplatin 10 μM, 24 h (Fig. 4c). The procedure: Figure 4 [Ru(dppz)2(PIP)]^2+ induces Chk1 checkpoint kinase activation and G1-S cell-cycle arrest. […] See SI for densitometry. (c) Cell-cycle distributions of HeLa cells incubated with DMSO (0.2%), 1 or 2 at the stated concentrations and time. DNA content was quantified using propidium iodide (PI) and analysed by flow cytometry. […] Data mean of three independent experiments +/− SD. […] They are copied as bare numbers, left to right. / The gate numbers in panel c are very small, so 3, 5, 6, 8 and 9 cannot be told apart with certainty. All the values below are best readings. / DMSO: 0.86, 57.4, 22.5, 16.8 uncertain / 1 (40 μM, 3 h): 0.46, 72.7, 13.5, 8.77 uncertain / 1 (40 μM, 8 h): 1.69, 73.2, 15.3, 3.6 uncertain / 1 (40 μM, 24 h): 1.2, 72.9, 15.8, 6.47 uncertain. […] 32.4 is partly overlapped by the peak line.
Cells were washed with PBS and detached using Trypsin. After centrifugation at 1000 rpm for 5 min, cells were fixed in cold 70% ethanol for 30 mins, centrifuged and re-suspended in PBS. Samples were stained using 10 μg/ml propidium iodide (PI) and 200 μg/ml RNAase A for 30 mins before FACS analysis using a Biosciences LSRII Flow Cytometer. A minimum of 10,000 cells were counted for each sample and data were processed using FloJo software. […]
(In flow cytometry, cells or beads pass a laser one at a time.)

Where only a bound is given, the exact number is not on record here.

In the case of `O=c1[nH]c2ccc(Cl)cc2c(N[C@@H]2CN3CCC2CC3)c1-c1nc2ccccc2[nH]1` [CHIR-124, reference compound], the “morphological evidence of apoptosis (pyknosis/karyorrhexis)” value in the assay on HeLa cells [1] is given as under 5%.

On to `N.N.[Cl][Pt][Cl]` [Cisplatin, cis-diamminedichloroplatinum(II)], for which the values for the IC50 (in assay [2]; in assay [3]; with MCF7 breast cancer cells) were 9 µM, over 100 µM and 11 µM, respectively. For the same molecule, the “cells with sub-G1 DNA content” value in the assay with HeLa cells [4] is recorded as ~ 30%.

On to `O=C1c2c(O)ccc(O)c2C(=O)c2c(NCCNCCO)ccc(NCCNCCO)c21` [MX, mitoxantrone], for which the IC50 in assay [2] was 3 µM; in assay [2] (Homo sapiens, HeLa, 24 h), under 5 µM; in assay [3], 4.2 µM; in assay [3] (Homo sapiens, Fibroblast, 24 h), under 5 µM; in the assay on MCF7 breast cancer cells, 3.6 µM; with MCF7 breast cancer cells (Homo sapiens, MCF7, 24 h), under 5 µM.

A word on the IC50: it is the concentration that gives 50% inhibition. High values mean weaker potency in that assay, low ones greater potency in that assay.
